Measurements: publication PMC9527238, “Glutamate and GABAA receptor crosstalk mediates homeostatic regulation of neuronal excitation in the mammalian brain” (Signal Transduction and Targeted Therapy, 2022)

Assays:
Test in all cases: Patch clamp, HEK293, mutant GABAAR
Type in all cases: cell-based
α1 β2^V177A γ2 GABAAR = biological target: T1, α1 β2^V177A γ2 GABAAR (Rattus norvegicus, UniProt P62813+P63138, V202A); settings: glutamate 100 μM co-applied with GABA 1 μM; normalized to wild-type α1β2γ2
T1 construct: expressed in transfected cells; host or cells: HEK293
T1 sequence (P62813 28-455): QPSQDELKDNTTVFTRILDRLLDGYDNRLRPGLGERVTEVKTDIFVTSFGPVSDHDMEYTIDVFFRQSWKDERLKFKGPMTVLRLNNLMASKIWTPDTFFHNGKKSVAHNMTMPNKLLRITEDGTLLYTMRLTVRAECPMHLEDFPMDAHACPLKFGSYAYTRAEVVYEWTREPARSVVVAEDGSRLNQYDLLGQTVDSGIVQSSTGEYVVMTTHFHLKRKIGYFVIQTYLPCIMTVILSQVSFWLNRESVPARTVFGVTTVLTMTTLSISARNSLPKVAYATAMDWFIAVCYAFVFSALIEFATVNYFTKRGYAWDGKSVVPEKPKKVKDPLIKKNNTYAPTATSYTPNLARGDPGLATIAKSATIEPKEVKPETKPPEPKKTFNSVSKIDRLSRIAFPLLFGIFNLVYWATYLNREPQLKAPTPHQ
T1 sequence (P63138 26-474 V202A): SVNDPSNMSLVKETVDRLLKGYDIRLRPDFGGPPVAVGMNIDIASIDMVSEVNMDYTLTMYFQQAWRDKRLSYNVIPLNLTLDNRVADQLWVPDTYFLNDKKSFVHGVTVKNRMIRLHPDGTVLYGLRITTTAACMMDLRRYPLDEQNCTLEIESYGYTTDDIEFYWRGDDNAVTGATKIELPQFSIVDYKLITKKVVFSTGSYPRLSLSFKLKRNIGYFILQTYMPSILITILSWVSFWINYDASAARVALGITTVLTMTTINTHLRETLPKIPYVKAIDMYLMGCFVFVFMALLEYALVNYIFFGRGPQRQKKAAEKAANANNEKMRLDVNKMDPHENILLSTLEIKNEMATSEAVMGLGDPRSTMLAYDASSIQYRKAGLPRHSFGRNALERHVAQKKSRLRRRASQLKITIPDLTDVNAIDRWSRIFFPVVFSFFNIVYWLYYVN
T1 sequence (P18508 39-466 partner): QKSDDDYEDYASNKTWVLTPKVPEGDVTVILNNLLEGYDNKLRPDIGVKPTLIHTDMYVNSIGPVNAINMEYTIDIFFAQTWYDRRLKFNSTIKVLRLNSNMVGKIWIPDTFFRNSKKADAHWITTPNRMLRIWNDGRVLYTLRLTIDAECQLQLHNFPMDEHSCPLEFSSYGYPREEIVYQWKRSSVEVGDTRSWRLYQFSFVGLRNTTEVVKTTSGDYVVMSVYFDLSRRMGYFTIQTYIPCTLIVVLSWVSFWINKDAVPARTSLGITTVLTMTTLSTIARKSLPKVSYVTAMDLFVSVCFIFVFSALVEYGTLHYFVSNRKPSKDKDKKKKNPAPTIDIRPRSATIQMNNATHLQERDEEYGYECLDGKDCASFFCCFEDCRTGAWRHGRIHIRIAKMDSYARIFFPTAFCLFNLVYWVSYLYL
Method: (§1) To positively confirm one of these two putative binding sites involved in glutamate binding, we performed a systemic mutational analysis of critical amino acids around these two sites followed by electrophysiological characterizations of their impacts on glutamate potentiation in HEK293 cells expressing wild-type or mutated α1β2γ2 GABAARs (Table 1).
(§2) HEK293 cells were cultured in DMEM (Invitrogen) supplemented with 10% fetal bovine serum. Cells were grown to 40–60% confluence and transiently transfected using Lipofectamine 2000 (Invitrogen) with 1:0.5–1 plasmid/lipid ratio. Cells were transfected with a pBK-CMV expression vector containing a rat recombinant GABAAR α, β or γ subunits. Co-transections were done with a plasmid ratio of 1:1 αβ and 2:2:1 for αβγ subunit combinations, respectively. pcDNA3.1-GFP was also co-transfected along with GABAAR subunits as a transfected marker in order to facilitate the visualization of the transfected cells during electrophysiological experiments. Cells were re-plated on glass coverslips after 15–20 h transfection and were cultured for an additional 15–24 h before whole-cell patch-clamp recordings.
(§3) The site-directed mutagenesis of α, β or γ subunits were performed by using the QuikChange method (Stratagene). […] Wild-type or mutant subunits were transfected in HEK293 cells and subjected to electrophysiology examinations.
(§4) Whole-cell patch-clamp recordings were performed under voltage-clamp mode using an Axopatch 200B or 1D patch-clamp amplifier (Molecular Devices) on HEK293 cells and cultured neurons. Whole-cell currents were recorded at a holding potential of −60 mV, and signals were filtered at 2 kHz, digitized at 10 kHz (Digidata 1322 A). Recording pipettes (3–5 MΩ) were filled with the intracellular solution that contained (mM): CsCl 140, HEPES 10, Mg-ATP 4, QX-314 5, pH 7.20; osmolarity, 290–295 mOsm. BAPTA (10 mM) was added in the intracellular solution. The coverslips were continuously superfused with the extracellular solution containing (mM): NaCl 140, KCl 5.4, HEPES 10, MgCl2 1.0, CaCl2 1.3, glucose 20, pH 7.4; osmolarity, 305–315 mOsm. […] Dose–response curves were created by fitting data to Hill equation: I = Imax/[1 + (EC50/[A])^n], where I is the current, Imax is the maximum current, [A] is a given concentration of agonist, n is the Hill coefficient. […] All experiments were performed at room temperature.

α1 β2 ^I180A γ2 GABAAR = biological target: T2, α1 β2 ^I180A γ2 GABAAR (Rattus norvegicus, UniProt P62813+P63138, I205A); settings: glutamate 100 μM co-applied with GABA 1 μM; normalized to wild-type α1β2γ2
T2 construct: expressed in transfected cells; host or cells: HEK293
T2 sequence (P62813 28-455): as the sequence (P62813 28-455) above
T2 sequence (P63138 26-474 I205A): as the sequence (P63138 26-474 V202A) above, with A177V, I180A counted along it
T2 sequence (P18508 39-466 partner): as the sequence (P18508 39-466 partner) above
Method: as §1, §2, §3, §4

α1^S205A β2 γ2 GABAAR = biological target: T3, α1^S205A β2 γ2 GABAAR (Rattus norvegicus, UniProt P62813+P63138, S232A); settings: glutamate 100 μM co-applied with GABA 1 μM; normalized to wild-type α1β2γ2
T3 construct: expressed in transfected cells; host or cells: HEK293
T3 sequence (P62813 28-455 S232A): as the sequence (P62813 28-455) above, with S205A counted along it
T3 sequence (P63138 26-474): as the sequence (P63138 26-474 V202A) above, with A177V counted along it
T3 sequence (P18508 39-466 partner): as the sequence (P18508 39-466 partner) above
Method: as §1, §2, §3, §4

α1^F99A β2 γ2 GABAAR = biological target: T4, α1^F99A β2 γ2 GABAAR (Rattus norvegicus, UniProt P62813+P63138, F126A); settings: glutamate 100 μM co-applied with GABA 1 μM; normalized to wild-type α1β2γ2
T4 construct: expressed in transfected cells; host or cells: HEK293
T4 sequence (P62813 28-455 F126A): as the sequence (P62813 28-455) above, with F99A counted along it
T4 sequence (P63138 26-474): as the sequence (P63138 26-474 V202A) above, with A177V counted along it
T4 sequence (P18508 39-466 partner): as the sequence (P18508 39-466 partner) above
Method: as §1, §2, §3, §4

α1^S158A β2 γ2 GABAAR = biological target: T5, α1^S158A β2 γ2 GABAAR (Rattus norvegicus, UniProt P62813+P63138, S185A); settings: glutamate 100 μM co-applied with GABA 1 μM; normalized to wild-type α1β2γ2
T5 construct: expressed in transfected cells; host or cells: HEK293
T5 sequence (P62813 28-455 S185A): as the sequence (P62813 28-455) above, with S158A counted along it
T5 sequence (P63138 26-474): as the sequence (P63138 26-474 V202A) above, with A177V counted along it
T5 sequence (P18508 39-466 partner): as the sequence (P18508 39-466 partner) above
Method: as §1, §2, §3, §4

α1^Y159A β2 γ2 GABAAR = biological target: T6, α1^Y159A β2 γ2 GABAAR (Rattus norvegicus, UniProt P62813+P63138, Y186A); settings: glutamate 100 μM co-applied with GABA 1 μM; normalized to wild-type α1β2γ2
T6 construct: expressed in transfected cells; host or cells: HEK293
T6 sequence (P62813 28-455 Y186A): as the sequence (P62813 28-455) above, with Y159A counted along it
T6 sequence (P63138 26-474): as the sequence (P63138 26-474 V202A) above, with A177V counted along it
T6 sequence (P18508 39-466 partner): as the sequence (P18508 39-466 partner) above
Method: as §1, §2, §3, §4

α1^E208A β2 γ2 GABAAR = biological target: T7, α1^E208A β2 γ2 GABAAR (Rattus norvegicus, UniProt P62813+P63138, E235A); settings: glutamate 100 μM co-applied with GABA 1 μM; normalized to wild-type α1β2γ2
T7 construct: expressed in transfected cells; host or cells: HEK293
T7 sequence (P62813 28-455 E235A): as the sequence (P62813 28-455) above, with E208A counted along it
T7 sequence (P63138 26-474): as the sequence (P63138 26-474 V202A) above, with A177V counted along it
T7 sequence (P18508 39-466 partner): as the sequence (P18508 39-466 partner) above
Method: as §1, §2, §3, §4

α1^T206A β2 γ2 GABAAR = biological target: T8, α1^T206A β2 γ2 GABAAR (Rattus norvegicus, UniProt P62813+P63138, T233A); settings: glutamate 100 μM co-applied with GABA 1 μM; normalized to wild-type α1β2γ2
T8 construct: expressed in transfected cells; host or cells: HEK293
T8 sequence (P62813 28-455 T233A): as the sequence (P62813 28-455) above, with T206A counted along it
T8 sequence (P63138 26-474): as the sequence (P63138 26-474 V202A) above, with A177V counted along it
T8 sequence (P18508 39-466 partner): as the sequence (P18508 39-466 partner) above
Method: as §1, §2, §3, §4

αK155Rβγ GABAAR = biological target: T9, αK155Rβγ GABAAR (Rattus norvegicus, UniProt P62813+P63138, K182R); settings: HEK293, read-out: Glutamate potentiation of GABA currents, % of control, normalized to wild-type α1β2γ2
T9 construct: expressed in transfected cells; host or cells: HEK293
T9 sequence (P62813 28-455 K182R): as the sequence (P62813 28-455) above, with K155R counted along it
T9 sequence (P63138 26-474): as the sequence (P63138 26-474 V202A) above, with A177V counted along it
T9 sequence (P18508 39-466 partner): as the sequence (P18508 39-466 partner) above
Text: (§5) To further determine the relative significance between the electrostatic and the side chain steric arrangements of these critical amino acid residues in their interaction with glutamate, we next studied the effects of substitution of these amino acids with amino acids of various sizes or charges on the glutamate potentiation. We substituted α1K104, α1E137, α1K155, or β2E181 with […], a non-charged amino acid, in order to perturb the electrostatic accessibility of glutamate to the binding pocket.
(§6) Fig. 4 Property characterization of glutamate binding sites in HEK cells expressing wild-type or mutated αβγ GABAARs. a, b The effects of electrostatic charge and/or size of the pocket-forming residues on glutamate-induced functional modulation.
as §2, §3, §4

αβE181Dγ GABAAR = biological target: T10, αβE181Dγ GABAAR (Rattus norvegicus, UniProt P62813+P63138, E206D); settings: HEK293, read-out: Glutamate potentiation of GABA currents, % of control, normalized to wild-type α1β2γ2
T10 construct: expressed in transfected cells; host or cells: HEK293
T10 sequence (P62813 28-455): as the sequence (P62813 28-455) above
T10 sequence (P63138 26-474 E206D): as the sequence (P63138 26-474 V202A) above, with A177V, E181D counted along it
T10 sequence (P18508 39-466 partner): as the sequence (P18508 39-466 partner) above
Text: as §5, §6, §2, §3, §4

αE137Dβγ GABAAR = biological target: T11, αE137Dβγ GABAAR (Rattus norvegicus, UniProt P62813+P63138, E164D); settings: HEK293, read-out: Glutamate potentiation of GABA currents, % of control, normalized to wild-type α1β2γ2
T11 construct: expressed in transfected cells; host or cells: HEK293
T11 sequence (P62813 28-455 E164D): as the sequence (P62813 28-455) above, with E137D counted along it
T11 sequence (P63138 26-474): as the sequence (P63138 26-474 V202A) above, with A177V counted along it
T11 sequence (P18508 39-466 partner): as the sequence (P18508 39-466 partner) above
Text: as §5, §6, §2, §3, §4

αβE181Wγ GABAAR = biological target: T12, αβE181Wγ GABAAR (Rattus norvegicus, UniProt P62813+P63138, E206W); settings: HEK293, read-out: Glutamate potentiation of GABA currents, % of control, normalized to wild-type α1β2γ2
T12 construct: expressed in transfected cells; host or cells: HEK293
T12 sequence (P62813 28-455): as the sequence (P62813 28-455) above
T12 sequence (P63138 26-474 E206W): as the sequence (P63138 26-474 V202A) above, with A177V, E181W counted along it
T12 sequence (P18508 39-466 partner): as the sequence (P18508 39-466 partner) above
Text: as §5, §6, §2, §3, §4

## N[C@@H](CCC(=O)O)C(=O)O [glutamate, Glutamate]
α1 β2^V177A γ2 GABAAR
  Relative potentiation: 89.5 ± 28.3%
α1 β2 ^I180A γ2 GABAAR
  Relative potentiation: 18.8 ± 12.9%
α1^S205A β2 γ2 GABAAR
  Relative potentiation: 113.1 ± 33.0%
α1^F99A β2 γ2 GABAAR
  Relative potentiation: 96.4 ± 23.0%
α1^S158A β2 γ2 GABAAR
  Relative potentiation: 106.9 ± 39.8%
α1^Y159A β2 γ2 GABAAR
  Relative potentiation: 90.8 ± 26.7%
α1^E208A β2 γ2 GABAAR
  Relative potentiation: 90.9 ± 28.7%
α1^T206A β2 γ2 GABAAR
  Relative potentiation: 129.3 ± 61.7%
αK155Rβγ GABAAR; Glu 100 μM
  activity at 100 µM: 88.4 ± 22.5%
αK155Rβγ GABAAR; Glu 1 mM
  activity at 1000 µM: 106 ± 20.4%
αβE181Dγ GABAAR; Glu 100 μM
  activity at 100 µM: 155 ± 39.5%
αβE181Dγ GABAAR; Glu 1 mM
  activity at 1000 µM: 102 ± 24.5%
αE137Dβγ GABAAR; Glu 100 μM
  activity at 100 µM: 106 ± 18.3%
αE137Dβγ GABAAR; Glu 1 mM
  activity at 1000 µM: 91.5 ± 15.4%
αβE181Wγ GABAAR; Glu 100 μM
  activity at 100 µM: 5.4 ± 4.9%
αβE181Wγ GABAAR; Glu 1 mM
  activity at 1000 µM: 7.6 ± 4.3%
